From patent US8664257B2, “Oxygen-substituted 3-heteroaroylamino-propionic acid derivatives and their use as pharmaceuticals” (Sanofi, priority 2010, dated 2014)
Like-named read-outs stand apart in the source and are kept apart here. Blank lines part the entries; values can stand above or below the compound they belong to.

Molecular target: T1, Recombinant human cathepsin A (Homo sapiens, UniProt P10619)
T1 construct: Recombinant human cathepsin A (residues 29-480, with a C-terminal 10-His tag); 10-His (C); purchased R&D Systems 1049-SE
T1 sequence (P10619 29-312 limits assumed): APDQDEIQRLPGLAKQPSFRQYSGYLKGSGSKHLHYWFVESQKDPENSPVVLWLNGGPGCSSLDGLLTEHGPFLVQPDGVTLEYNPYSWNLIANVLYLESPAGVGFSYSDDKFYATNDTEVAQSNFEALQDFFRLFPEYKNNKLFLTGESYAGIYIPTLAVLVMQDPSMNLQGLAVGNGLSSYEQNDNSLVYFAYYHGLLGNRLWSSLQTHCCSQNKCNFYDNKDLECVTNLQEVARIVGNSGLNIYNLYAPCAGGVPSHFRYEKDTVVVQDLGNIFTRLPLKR
T1 sequence (P10619 327-480 limits assumed): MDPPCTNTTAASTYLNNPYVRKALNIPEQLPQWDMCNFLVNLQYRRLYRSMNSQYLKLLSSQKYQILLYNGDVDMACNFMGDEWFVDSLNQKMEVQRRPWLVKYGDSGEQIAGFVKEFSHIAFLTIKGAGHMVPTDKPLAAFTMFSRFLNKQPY
Assay: Cathepsin A inhibitory activity
Format: biochemical
In short: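 Read-out was microfluidic separation of cleaved vs. uncleaved Bodipy FL-bradykinin (2 μM), giving turnover, % inhibition and IC50. Compound and 833 ng/ml enzyme met for 15 min RT in pH 5.5 MES/DTT before substrate (15 min RT). The 29-480 His-tagged human enzyme was first activated by cathepsin L, then E-64 (10 μM).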

[1] = read-out: Activity (2): Cathepsin A inhibitory activity (IC50 class)
[2] = recombinant human cathepsin A, read-out: Activity (2): Cathepsin A inhibitory activity, IC50 class
[3] = read-out: Activity (2): Cathepsin A inhibitory activity, IC50 class
[4] = recombinant human cathepsin A 833 ng/ml, Bodipy FL-labeled bradykinin 2 μM, pH 5.5, read-out: CATH-A IC50
[5] = pharmacological test "Cathepsin A inhibitory activity", IC50 given as class A/B/C, read-out: Activity (2): Cathepsin A inhibitory activity, IC50 class

Compound: N#Cc1ccc([C@H](CC(=O)O)NC(=O)c2cc(OCC3CC3)n(-c3ccccc3F)n2)cc1 [Example 688]
IC50 [1]: < 0.1 µM

Compound: Cc1ccccc1[C@H](CC(=O)O)NC(=O)c1cc(OC[C@@](C)(O)C(C)C)n(-c2ccccc2F)n1 [Example 870, (S)-3-{[1-(2-Fluoro-phenyl)-5-((S)-2-hydroxy-2,3-dimethyl-butoxy)-1H-pyrazole-3-carbonyl]-amino}-3-o-tolyl-propionic acid]
IC50 [3]: < 0.1 µM
IC50 [4]: 0.076 µM

Compound: Cc1ccc(C)c(-n2nc(C(=O)NC(CC(=O)O)C(C)C)cc2O)c1 (stereo not drawn) [Example 32]
IC50 [3]: 1 to 30 µM

Compound: Cc1ccccc1[C@H](CC(=O)O)NC(=O)c1cc(OCC(=O)C(C)(C)C)n(-c2ccccc2F)n1 [Example 700, (S)-3-{[5-(3,3-Dimethyl-2-oxo-butoxy)-1-(2-fluoro-phenyl)-1H-pyrazole-3-carbonyl]-amino}-3-o-tolyl-propionic acid]
IC50 [1]: < 0.1 µM

Compound: COc1ccc(-c2ccccc2)cc1C(CC(=O)O)NC(=O)c1cc(O)n(-c2ccccc2F)n1 (stereo not drawn) [Example 556, 3-{[1-(2-Fluoro-phenyl)-5-hydroxy-1H-pyrazole-3-carbonyl]-amino}-3-(4-methoxy-biphenyl-3-yl)-propionic acid]
IC50 [1]: 1 to 30 µM
IC50 [4]: 8.65 µM

Compound: COc1cc(C(=O)NC(CC(=O)O)c2ccc(-c3ccc(F)cc3)cc2)nn1-c1ccccc1F (stereo not drawn) [Example 543]
IC50 [1]: 0.1 to 1 µM

Compound: CC(C)[C@@](C)(O)COc1cc(C(=O)NCC(C(=O)O)c2ccccc2)nn1-c1ccccc1F (stereo partly drawn) [Example 827, 3-{[1-(2-Fluoro-phenyl)-5-((R)-2-hydroxy-2,3-dimethyl-butoxy)-1H-pyrazole-3-carbonyl]-amino}-2-phenyl-propionic acid]
IC50 [3]: 0.1 to 1 µM

Compound: Cc1ccccc1[C@H](CC(=O)O)NC(=O)c1cc(OCC(C)(O)C2CC2)n(-c2ccccc2F)n1 (stereo partly drawn) [Example 757, (S)-3-{[5-(2-Cyclopropyl-2-hydroxy-propoxy)-1-(2-fluoro-phenyl)-1H-pyrazole-3-carbonyl]-amino}-3-o-tolyl-propionic acid]
IC50 [1]: < 0.1 µM

Compound: COc1cccc([C@H](CC(=O)O)NC(=O)c2cc(OCC(C)(O)C(C)C)n(-c3ccccc3F)n2)c1 (stereo partly drawn) [Example 802, (S)-3-{[1-(2-Fluoro-phenyl)-5-(2-hydroxy-2,3-dimethyl-butoxy)-1H-pyrazole-3-carbonyl]-amino}-3-(3-methoxy-phenyl)-propionic acid]
IC50 [3]: < 0.1 µM

Compound: COc1cc(C(=O)N[C@@H](CC(=O)NC(C)C)c2ccccc2C)nn1-c1ccccc1F [Example 929]
IC50 [2]: 0.1 to 1 µM

Compound: CCOc1cc(C(=O)N[C@@H](CC(=O)O)c2cccc(Cl)c2Cl)nn1-c1ccccc1Cl [Example 742]
IC50 [1]: < 0.1 µM

Compound: O=C(O)CC(NC(=O)c1cc(O)n(-c2ccccc2)n1)c1cccc(Oc2ccc(Cl)cc2)c1 (stereo not drawn) [Example 173]
IC50 [5]: 1 to 30 µM

Compound: CC(C)C(C)(O)COc1cc(C(=O)N[C@@H](CC(=O)O)c2cccc(F)c2)nn1-c1ccccc1F (stereo partly drawn) [Example 782, (S)-3-(3-Fluoro-phenyl)-3-{[1-(2-fluoro-phenyl)-5-(2-hydroxy-2,3-dimethyl-butoxy)-1H-pyrazole-3-carbonyl]-amino}-propionic acid]
IC50 [1]: < 0.1 µM

Compound: Cc1ccccc1[C@H](CC(=O)O)NC(=O)c1cc(OCc2ccccc2)n(-c2ccccc2F)n1 [Example 651]
IC50 [1]: < 0.1 µM

Compound: O=C(O)CC(NC(=O)c1cc(O)n(-c2ccccc2Cl)n1)c1ccc(-n2ccnc2)cc1 (stereo not drawn) [Example 116]
IC50 [3]: 1 to 30 µM

Compound: COc1ccccc1[C@H](CC(=O)O)NC(=O)c1cc(OC)n(-c2ccccc2F)n1 [Example 667]
IC50 [1]: 0.1 to 1 µM

Compound: O=C(O)CC(NC(=O)c1cc(O)n(-c2cccc(F)c2)n1)c1ccc(-c2ccccn2)cc1 (stereo not drawn) [Example 521]
IC50 [2]: 0.1 to 1 µM

Compound: Cc1ccccc1[C@H](CC(=O)O)NC(=O)c1cc(OC[C@@H]2CCC(=O)N2)n(-c2ccccc2F)n1 [Example 654]
IC50 [1]: < 0.1 µM

Compound: COc1cccc([C@H](CC(=O)O)NC(=O)c2cc(OC[C@](C)(O)C(C)C)n(-c3ccccc3F)n2)c1 [Example 806, (S)-3-{[1-(2-Fluoro-phenyl)-5-((R)-2-hydroxy-2,3-dimethyl-butoxy)-1H-pyrazole-3-carbonyl]-amino}-3-(3-methoxy-phenyl)-propionic acid]
IC50 [3]: < 0.1 µM

Compound: O=C(O)C[C@H](NC(=O)c1cc(O)n(-c2ccccc2Cl)n1)c1ccc(C(F)(F)F)cc1 [Example 110]
IC50 [3]: 0.1 to 1 µM

Compound: COc1ccc([C@H](CC(=O)O)NC(=O)c2cc(O)n(-c3ccccc3F)n2)cc1 [Example 398]
IC50 [3]: 0.1 to 1 µM

Compound: Cc1ccccc1[C@H](CC(=O)O)NC(=O)c1cc(OCC(C)(O)C(C)C)n(-c2ccccc2F)n1 (stereo partly drawn) [Example 770, (S)-3-{[1-(2-Fluoro-phenyl)-5-(2-hydroxy-2,3-dimethyl-butoxy)-1H-pyrazole-3-carbonyl]-amino}-3-o-tolyl-propionic acid]
IC50 [1]: < 0.1 µM

Compound: O=C(O)CC(NC(=O)c1cc(O)n(-c2cccc(Cl)c2F)n1)c1ccc(-c2ccc(F)cc2)cc1 (stereo not drawn) [Example 590]
IC50 [1]: 0.1 to 1 µM

Compound: O=C(O)CC(NC(=O)c1cc(O)n(-c2ccccc2)n1)c1ccc(-c2ccccc2F)cc1 (stereo not drawn) [Example 583]
IC50 [1]: 1 to 30 µM

Compound: COc1ccccc1[C@H](CC(=O)O)NC(=O)c1cc(OCC2CC2)n(-c2ccccc2F)n1 [Example 687]
IC50 [1]: 0.1 to 1 µM

Compound: COc1cc(C(=O)N[C@@H](CC(=O)O)c2ccc(Cl)cc2Cl)nn1-c1ccccc1F [Example 673]
IC50 [1]: < 0.1 µM

Further lines, results first:

IC50 [2]: < 0.1 µM
Compound: O=C(O)CC(NC(=O)c1cc(O)n(-c2ccccc2F)n1)c1cc(Cl)ccc1Cl (stereo not drawn) [Example 479]

IC50 [1]: < 0.1 µM
IC50 [4]: 0.0047 µM
Compound: Cc1ccccc1[C@H](CC(=O)O)NC(=O)c1cc(OC[C@H](O)C(C)(C)C)n(-c2ccccc2F)n1 (single isomer, unassigned) [Example 745]

IC50 [1]: < 0.1 µM
Compound: CCOc1cc(C(=O)N[C@@H](CC(=O)O)c2ccccc2C)nn1-c1ccccc1 [Example 621]

IC50 [3]: 1 to 30 µM
Compound: O=C(O)CC(NC(=O)c1cc(O)n(-c2ccccc2)n1)c1cccc(F)c1 (stereo not drawn) [Example 63]

IC50 [3]: 0.1 to 1 µM
Compound: O=C(O)CC(NC(=O)c1cc(O)n(-c2ccc(F)cc2)n1)c1cccc(Cl)c1Cl (stereo not drawn) [Example 352]

IC50 [5]: 0.1 to 1 µM
Compound: COc1ccc(C(CC(=O)O)NC(=O)c2cc(O)n(-c3cccc(Cl)c3)n2)c(C)c1 (stereo not drawn) [Example 250]

IC50 [5]: 0.1 to 1 µM
Compound: O=C(O)CC(NC(=O)c1cc(O)n(-c2cccc(Cl)c2)n1)c1cccc2c1OCO2 (stereo not drawn) [Example 249]

IC50 [3]: 0.1 to 1 µM
Compound: Cc1ccccc1[C@H](CC(=O)O)NC(=O)c1cc(O)n(-c2ccnc(Cl)c2)n1 [Example 131]

IC50 [4]: 0.137 µM
IC50 [2]: 0.1 to 1 µM
Compound: Cc1c(F)cccc1C(CC(=O)O)NC(=O)c1cc(O)n(-c2cccc(Cl)c2)n1 (stereo not drawn) [Example 508, 3-{[1-(3-Chloro-phenyl)-5-hydroxy-1H-pyrazole-3-carbonyl]-amino}-3-(3-fluoro-2-methyl-phenyl)-propionic acid]

IC50 [2]: 0.1 to 1 µM
Compound: O=C(O)CC(NC(=O)c1cc(O)n(-c2cccc(F)c2)n1)c1cc(F)ccc1F (stereo not drawn) [Example 485]

IC50 [2]: 0.1 to 1 µM
Compound: O=C(O)C[C@H](NC(=O)c1cc(O)n(-c2cccc(Cl)c2)n1)c1cccc(Cl)c1 [Example 415]

IC50 [2]: < 0.1 µM
Compound: Cc1ccc(F)cc1C(CC(=O)O)NC(=O)c1cc(O)n(-c2ccccc2F)n1 (stereo not drawn) [Example 478]

IC50 [4]: 0.128 µM
IC50 [2]: 0.1 to 1 µM
Compound: O=C(O)CC(NC(=O)c1cc(O)n(-c2ccccc2Cl)n1)c1cc(F)ccc1F (stereo not drawn) [Example 459, 3-{[1-(2-Chloro-phenyl)-5-hydroxy-1H-pyrazole-3-carbonyl]-amino}-3-(2,5-difluoro-phenyl)-propionic acid]

IC50 [3]: 0.1 to 1 µM
Compound: O=C(O)C[C@H](NC(=O)c1cc(O)n(-c2ccccc2Cl)n1)c1ccccc1F [Example 107]

IC50 [4]: 0.102 µM
IC50 [2]: 0.1 to 1 µM
Compound: O=C(O)CC(NC(=O)c1cc(O)n(-c2cccc(Cl)c2)n1)c1cc(Cl)ccc1Cl (stereo not drawn) [Example 511, 3-{[1-(3-Chloro-phenyl)-5-hydroxy-1H-pyrazole-3-carbonyl]-amino}-3-(2,5-dichloro-phenyl)-propionic acid]

IC50 [1]: 0.1 to 1 µM
IC50 [4]: 0.731 µM
Compound: COc1ccc(F)c(C(CC(=O)O)NC(=O)c2cc(O)n(-c3ccccc3Cl)n2)c1 (stereo not drawn) [Example 559, 3-{[1-(2-Chloro-phenyl)-5-hydroxy-1H-pyrazole-3-carbonyl]-amino}-3-(2-fluoro-5-methoxy-phenyl)-propionic acid]

IC50 [3]: 0.1 to 1 µM
Compound: O=C(O)CC(NC(=O)c1cc(O)n(-c2ccc(Cl)cc2)n1)c1cccc(C(F)(F)F)c1Cl (stereo not drawn) [Example 289]

IC50 [4]: 0.175 µM
IC50 [2]: 0.1 to 1 µM
Compound: Cc1ccc(F)cc1C(CC(=O)O)NC(=O)c1cc(O)n(-c2cccc(Cl)c2)n1 (stereo not drawn) [Example 510, 3-{[1-(3-Chloro-phenyl)-5-hydroxy-1H-pyrazole-3-carbonyl]-amino}-3-(5-fluoro-2-methyl-phenyl)-propionic acid]

IC50 [4]: 0.114 µM
IC50 [2]: 0.1 to 1 µM
Compound: Cc1c(F)cccc1C(CC(=O)O)NC(=O)c1cc(O)n(-c2ccc(F)cc2F)n1 (stereo not drawn) [Example 447, 3-{[1-(2,4-Difluoro-phenyl)-5-hydroxy-1H-pyrazole-3-carbonyl]-amino}-3-(3-fluoro-2-methyl-phenyl)-propionic acid]
